System: Genes belonging to other category
Experiment: DNA chip mRNA expression in yeast, genes belonging to other category (Table 9)
Type: cell-based, Saccharomyces cerevisiae S288C
Protocol: Yeast (Saccharomyces cerevisiae S288C (α SUC2mal mel gap2 CUP1)) were incubated at 25° C. on YPD medium (yeast extract 1%, polypepton 2%, glucose 2%). One of toxic chemical substances was added to the cells at logarithmic growth phase, and the cells were further incubated for two hours. Cells were cultured without any chemical substance in the same condition, and were used as control. Concentrations of the chemical substances were defined to inhibit the growth of the yeast but not lead to death.
After completion of the incubation, the culture was centrifuged to collect the cells. To the cells, sodium acetate buffer (50 mM sodium acetate, 10 mM EDTA, 1% SDS) was added, and the mixture was shaken at 65° C. for five minutes, followed by returning to room temperature, and obtaining the supernatant, of which the procedures were repeated two times. To the supernatant, ½ amount of a solution of phenol/chloroform was added, and the mixture was centrifuged to give a supernatant, which was added with an equal amount of chloroform, and the mixture was centrifuged to give a supernatant. To the supernatant, an equal amount of isopropanol containing 0.3 M sodium acetate was added, and the mixture was allowed to stand at room temperature for 30 minutes, after which the mixture was centrifuged to give a sediment of the whole RNAs. Seventy % ethanol was added to the sediment, and the mixture was again centrifuged to give a sediment, which was then dried and dissolved in water. mRNA was isolated from the whole RNAs as followings. In view of the fact that a poly A chain is attached to the 3′ terminus of mRNA, a polynucleotide having a poly T structure which was immobilized on the surface of latex beads was used to trap the mRNA, and then the mRNA was washed and eluted with spine column (Oligotex-dT30<Super>mRNA Purification Kit, Takara). Reverse transcription of the mRNA was conducted with a reverse transcriptase (Super Script II Reverse Transcriptase; catalogue No. 18064-014, GibcoBRL) using fluorescence-labeled nucleotides to give cDNAs that were introduced with Cy3-dUTP or Cy5-dUTP during the reverse transcription.
The labeled cDNAs were dissolved in TE buffer (10mM Tris-HCl/1 mM EDTA, pH8.0), and the solution was dropped on the DNA chip containing the whole genes of yeast (DNA Chip Research Inc. Japan) so that the cDNAs were hybridized on the DNA chip at 65° C. for over 12 hours. The fluoresces intensity of the DNA chip was read with a scanner, and the ratio relative to the fluorescence intensity resulting from the absence of chemical substance was estimated as the following, which is shown in Tables 1 to 9: […]

Oc1cc(Cl)c(Cl)cc1Cl [(6), 2,4,5-trichlorophenol]
The level of expressed mRNA in the presence of chemical substance/The level of expressed mRNA in the absence of chemical substance (yeast gene YMR275C): 1.4 | The level of expressed mRNA in the presence of chemical substance/The level of expressed mRNA in the absence of chemical substance (yeast gene YMR276W): 0.8 | The level of expressed mRNA in the presence of chemical substance/The level of expressed mRNA in the absence of chemical substance (yeast gene YMR297W): 1.8 | The level of expressed mRNA in the presence of chemical substance/The level of expressed mRNA in the absence of chemical substance (yeast gene YMR314W): 1.3 | The level of expressed mRNA in the presence of chemical substance/The level of expressed mRNA in the absence of chemical substance (yeast gene YNL006W): 1.0 | The level of expressed mRNA in the presence of chemical substance/The level of expressed mRNA in the absence of chemical substance (yeast gene YNL007C): 0.6 | The level of expressed mRNA in the presence of chemical substance/The level of expressed mRNA in the absence of chemical substance (yeast gene YNL069C): 0.4 | The level of expressed mRNA in the presence of chemical substance/The level of expressed mRNA in the absence of chemical substance (yeast gene YNL093W): 1.6 | The level of expressed mRNA in the presence of chemical substance/The level of expressed mRNA in the absence of chemical substance (yeast gene YNL333W): 1.5 | The level of expressed mRNA in the presence of chemical substance/The level of expressed mRNA in the absence of chemical substance (yeast gene YNR010W): 1.3 | The level of expressed mRNA in the presence of chemical substance/The level of expressed mRNA in the absence of chemical substance (yeast gene YNR069C): 1.7 | The level of expressed mRNA in the presence of chemical substance/The level of expressed mRNA in the absence of chemical substance (yeast gene YOL013C): 1.1 | The level of expressed mRNA in the presence of chemical substance/The level of expressed mRNA in the absence of chemical substance (yeast gene YOL039W): 0.4 | The level of expressed mRNA in the presence of chemical substance/The level of expressed mRNA in the absence of chemical substance (yeast gene YOL120C): 0.3 | The level of expressed mRNA in the presence of chemical substance/The level of expressed mRNA in the absence of chemical substance (yeast gene YOL164W): 1.2 | The level of expressed mRNA in the presence of chemical substance/The level of expressed mRNA in the absence of chemical substance (yeast gene YOR023C): 1.8 | The level of expressed mRNA in the presence of chemical substance/The level of expressed mRNA in the absence of chemical substance (yeast gene YOR036W): 1.7 | The level of expressed mRNA in the presence of chemical substance/The level of expressed mRNA in the absence of chemical substance (yeast gene YOR117W): 1.1 | The level of expressed mRNA in the presence of chemical substance/The level of expressed mRNA in the absence of chemical substance (yeast gene YOR124C): 0.9 | The level of expressed mRNA in the presence of chemical substance/The level of expressed mRNA in the absence of chemical substance (yeast gene YOR132W): 1.6 | The level of expressed mRNA in the presence of chemical substance/The level of expressed mRNA in the absence of chemical substance (yeast gene YOR133W): 0.9 | The level of expressed mRNA in the presence of chemical substance/The level of expressed mRNA in the absence of chemical substance (yeast gene YOR134W): 1.4 | The level of expressed mRNA in the presence of chemical substance/The level of expressed mRNA in the absence of chemical substance (yeast gene YOR157C): 1.2 | The level of expressed mRNA in the presence of chemical substance/The level of expressed mRNA in the absence of chemical substance (yeast gene YOR181W): 0.9 | The level of expressed mRNA in the presence of chemical substance/The level of expressed mRNA in the absence of chemical substance (yeast gene YOR185C): 3.0 | The level of expressed mRNA in the presence of chemical substance/The level of expressed mRNA in the absence of chemical substance (yeast gene YOR198C): 0.9 | The level of expressed mRNA in the presence of chemical substance/The level of expressed mRNA in the absence of chemical substance (yeast gene YOR259C): 0.8 | The level of expressed mRNA in the presence of chemical substance/The level of expressed mRNA in the absence of chemical substance (yeast gene YOR261C): 1.4 | The level of expressed mRNA in the presence of chemical substance/The level of expressed mRNA in the absence of chemical substance (yeast gene YOR288C): 1.0 | The level of expressed mRNA in the presence of chemical substance/The level of expressed mRNA in the absence of chemical substance (yeast gene YOR327C): 1.4 | The level of expressed mRNA in the presence of chemical substance/The level of expressed mRNA in the absence of chemical substance (yeast gene YOR355W): 1.6 | The level of expressed mRNA in the presence of chemical substance/The level of expressed mRNA in the absence of chemical substance (yeast gene YOR362C): 1.4 | The level of expressed mRNA in the presence of chemical substance/The level of expressed mRNA in the absence of chemical substance (yeast gene YOR383C): 6.8 | The level of expressed mRNA in the presence of chemical substance/The level of expressed mRNA in the absence of chemical substance (yeast gene YPL089C): 0.8 | The level of expressed mRNA in the presence of chemical substance/The level of expressed mRNA in the absence of chemical substance (yeast gene YPL109C): 1.2 | The level of expressed mRNA in the presence of chemical substance/The level of expressed mRNA in the absence of chemical substance (yeast gene YPL149W): 0.9 | The level of expressed mRNA in the presence of chemical substance/The level of expressed mRNA in the absence of chemical substance (yeast gene YPL154C): 3.5 | The level of expressed mRNA in the presence of chemical substance/The level of expressed mRNA in the absence of chemical substance (yeast gene YPR028W): 1.4 | The level of expressed mRNA in the presence of chemical substance/The level of expressed mRNA in the absence of chemical substance (yeast gene YPR080W): 1.4 | The level of expressed mRNA in the presence of chemical substance/The level of expressed mRNA in the absence of chemical substance (yeast gene YPR103W): 1.2 | The level of expressed mRNA in the presence of chemical substance/The level of expressed mRNA in the absence of chemical substance (yeast gene YPR108W): 1.5 | The level of expressed mRNA in the presence of chemical substance/The level of expressed mRNA in the absence of chemical substance (yeast gene YPR168W): 0.4

— patent US8192962B2, “Processes for detecting toxic substances” (Daikin Industries, Ltd., priority 2001, dated 2012)
